According to PubChem BioAssay AID330 (DTP/NCI, 2004):
“And” between values parts separate entries of the source, which are not always exact repeats. Identical values can stand only once. Toxic doses and inconclusive results are not listed.

Tested on: P388 leukemia ip, CD2F1 mice, survival T/C
Assay: NCI In Vivo Anticancer Drug Screen. Data for tumor model P388 Leukemia (intraperitoneal) in CD2F1 (CDF1) mice
Settings: endpoint: median survival time, higher = longer survival
In short: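 Mice carrying the transplanted tumor received test compound or vehicle. Survival was recorded in each group, and the value is the treated-group measurement divided by that of the vehicle-treated control group.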

[1] = dose: 50.0 mg/kg/injection, schedule: Q01DX005 (ip), vehicle: Klucel (hydroxypropylcellulose) (HPC)
[2] = dose: 100.0 mg/kg/injection, schedule: Q01DX005 (ip), vehicle: Klucel (hydroxypropylcellulose) (HPC)
[3] = dose: 100.0 mg/kg/injection, schedule: Q04DX003 (ip), vehicle: saline
[4] = dose: 200.0 mg/kg/injection, schedule: Q04DX003 (ip), vehicle: saline
[5] = dose: 400.0 mg/kg/injection, schedule: Q04DX003 (ip), vehicle: saline
[6] = dose: 100.0 mg/kg/injection, schedule: Q01DX001 (ip), vehicle: Klucel (hydroxypropylcellulose) (HPC)
[7] = dose: 200.0 mg/kg/injection, schedule: Q01DX001 (ip), vehicle: Klucel (hydroxypropylcellulose) (HPC)

SMILES: O=S(=O)(Cc1ccccc1)CS(=O)(=O)Cc1ccccc1
- T/C (dose: 50.0 mg/kg/injection, schedule: Q01DX009 (ip), vehicle: Klucel (hydroxypropylcellulose) (HPC)): 104 % of control
- T/C (dose: 100.0 mg/kg/injection, schedule: Q01DX009 (ip), vehicle: Klucel (hydroxypropylcellulose) (HPC)): 106 % of control
- T/C (dose: 200.0 mg/kg/injection, schedule: Q01DX009 (ip), vehicle: Klucel (hydroxypropylcellulose) (HPC)): 103 % of control
- T/C (dose: 400.0 mg/kg/injection, schedule: Q01DX009 (ip), vehicle: Klucel (hydroxypropylcellulose) (HPC)): 101 % of control

SMILES: Cc1ncc(CNC(=O)N(CCCl)N=O)c(N)n1
- T/C (dose: 10.0 mg/kg/injection, schedule: Q01DX001 (ip), vehicle: saline): 191 % of control
- T/C (dose: 20.0 mg/kg/injection, schedule: Q01DX001 (ip), vehicle: saline): 260 % of control and 336 % of control
- T/C (dose: 30.0 mg/kg/injection, schedule: Q01DX001 (ip), vehicle: saline): 517 % of control
- T/C (dose: 40.0 mg/kg/injection, schedule: Q01DX001 (ip), vehicle: saline): 120 % of control and 260 % of control

SMILES: CC1=NN(c2ccccc2)C/C1=N\O
- T/C [1]: 103 % of control
- T/C [2]: 102 % of control

SMILES: CCC1C(=O)OCc2c1cc1n(c2=O)Cc2ccccc2-1 (stereo unspecified)
- T/C (dose: 100.0 mg/kg/injection, schedule: Q01DX001 (ip), vehicle: saline with Tween-80): 97 % of control
- T/C (dose: 200.0 mg/kg/injection, schedule: Q01DX001 (ip), vehicle: saline with Tween-80): 92 % of control
- T/C (dose: 400.0 mg/kg/injection, schedule: Q01DX001 (ip), vehicle: saline with Tween-80): 90 % of control

SMILES: O=C(O)C(Nc1ncnc2c1ncn2C1OC(CO)C(O)C1O)C(F)(F)C(=O)O (stereo unspecified)
- T/C [3]: 97 % of control
- T/C [4]: 100 % of control
- T/C [5]: 99 % of control

SMILES: CCC(C)N(CC(C)C)CC(C)(O)CNc1cc(OC)cc2cccnc12 (stereo unspecified)
- T/C (dose: 12.0 mg/kg/injection, schedule: Q01DX005 (ip), vehicle: saline): 100 % of control
- T/C (dose: 25.0 mg/kg/injection, schedule: Q01DX005 (ip), vehicle: saline): 105 % of control
- T/C (dose: 50.0 mg/kg/injection, schedule: Q01DX005 (ip), vehicle: saline): 108 % of control and 96 % of control

SMILES: O=C(Oc1ccc(OC(=O)c2ccc([N+](=O)[O-])cc2)cc1)c1ccccc1
- T/C (dose: 50.0 mg/kg/injection, schedule: Q04DX003 (ip), vehicle: saline): 101 % of control
- T/C [6]: 95 % of control
- T/C [3]: 95 % of control
- T/C [7]: 95 % of control
- T/C [4]: 102 % of control
- T/C (dose: 400.0 mg/kg/injection, schedule: Q01DX001 (ip), vehicle: Klucel (hydroxypropylcellulose) (HPC)): 101 % of control
- T/C [5]: 96 % of control

SMILES: O=NCC(=O)OCc1ccccc1
- T/C (dose: 12.5 mg/kg/injection, schedule: Q01DX009 (ip), vehicle: water): 95 % of control
- T/C (dose: 25.0 mg/kg/injection, schedule: Q01DX009 (ip), vehicle: water): 87 % of control
- T/C (dose: 50.0 mg/kg/injection, schedule: Q01DX009 (ip), vehicle: water): 95 % of control
- T/C (dose: 100.0 mg/kg/injection, schedule: Q01DX009 (ip), vehicle: water): 99 % of control
- T/C (dose: 200.0 mg/kg/injection, schedule: Q01DX009 (ip), vehicle: water): 99 % of control

SMILES: Cn1c(=O)[nH]cc(F)c1=O
- T/C (dose: 10.0 mg/kg/injection, schedule: Q01DX009 (ip), vehicle: saline): 104 % of control
- T/C (dose: 20.0 mg/kg/injection, schedule: Q01DX009 (ip), vehicle: saline): 100 % of control
- T/C (dose: 40.0 mg/kg/injection, schedule: Q01DX009 (ip), vehicle: saline): 98 % of control

SMILES: Cc1nc(Nc2ccccc2)c2c(C)c(Cc3ccccc3)[nH]c2n1
- T/C [1]: 89 % of control
- T/C [2]: 86 % of control
- T/C (dose: 200.0 mg/kg/injection, schedule: Q01DX005 (ip), vehicle: Klucel (hydroxypropylcellulose) (HPC)): 87 % of control

SMILES: O=C1C2C3C=CC(C2C(=O)N1COP(=O)(OCc1ccccc1)OCc1ccccc1)C1C2C(=O)N(COP(=O)(OCc4ccccc4)OCc4ccccc4)C(=O)C2C31 (stereo unspecified)
- T/C (dose: 6.25 mg/kg/injection, schedule: Q01DX009 (ip), vehicle: saline + Tween-80 + alcohol): 99 % of control
- T/C (dose: 12.5 mg/kg/injection, schedule: Q01DX009 (ip), vehicle: saline + Tween-80 + alcohol): 105 % of control
- T/C (dose: 25.0 mg/kg/injection, schedule: Q01DX009 (ip), vehicle: saline + Tween-80 + alcohol): 103 % of control
- T/C (dose: 50.0 mg/kg/injection, schedule: Q01DX009 (ip), vehicle: saline + Tween-80 + alcohol): 106 % of control
- T/C (dose: 75.0 mg/kg/injection, schedule: Q01DX008 (ip), vehicle: saline + Tween-80 + alcohol): 109 % of control
- T/C (dose: 100.0 mg/kg/injection, schedule: Q01DX009 (ip), vehicle: saline + Tween-80 + alcohol): 107 % of control
- T/C (dose: 150.0 mg/kg/injection, schedule: Q01DX008 (ip), vehicle: saline + Tween-80 + alcohol): 99 % of control
- T/C (dose: 300.0 mg/kg/injection, schedule: Q01DX008 (ip), vehicle: saline + Tween-80 + alcohol): 100 % of control

SMILES: C=C1C(=O)C23C(OC(=O)CCCCC)C1CCC2C12COC3(O)C(O)C1C(C)(C)CCC2O (stereo unspecified)
- T/C (dose: 3.75 mg/kg/injection, schedule: Q01DX009 (ip), vehicle: saline with Tween-80): 102 % of control
- T/C (dose: 7.5 mg/kg/injection, schedule: Q01DX009 (ip), vehicle: saline with Tween-80): 105 % of control
- T/C (dose: 15.0 mg/kg/injection, schedule: Q01DX009 (ip), vehicle: saline with Tween-80): 113 % of control
- T/C (dose: 30.0 mg/kg/injection, schedule: Q01DX009 (ip), vehicle: saline with Tween-80): 104 % of control

SMILES: CC1c2ccccc2CC(CCN(C)C)c2ccccc21 (stereo unspecified)
- T/C (dose: 6.25 mg/kg/injection, schedule: Q01DX005 (ip), vehicle: saline with Tween-80): 101 % of control and 102 % of control and 106 % of control
- T/C (dose: 12.5 mg/kg/injection, schedule: Q01DX005 (ip), vehicle: saline with Tween-80): 101 % of control and 109 % of control (2×)
- T/C (dose: 25.0 mg/kg/injection, schedule: Q01DX005 (ip), vehicle: saline with Tween-80): 109 % of control and 97 % of control
- T/C (dose: 50.0 mg/kg/injection, schedule: Q01DX005 (ip), vehicle: saline with Tween-80): 110 % of control

SMILES: O=c1cc2cccccc-2o1
- T/C [6]: 101 % of control
- T/C [7]: 103 % of control

SMILES: CC12CCC(=O)N1c1ccccc1N2 (stereo unspecified)
- T/C (dose: 60.0 mg/kg/injection, schedule: Q01DX005 (ip), vehicle: saline with Tween-80): 98 % of control
- T/C (dose: 120.0 mg/kg/injection, schedule: Q01DX005 (ip), vehicle: saline with Tween-80): 94 % of control
- T/C (dose: 240.0 mg/kg/injection, schedule: Q01DX005 (ip), vehicle: saline with Tween-80): 102 % of control

SMILES: CCN1C(N)=NS(=O)(=O)c2ccccc21
- T/C (dose: 100.0 mg/kg/injection, schedule: Q04DX002 (ip), vehicle: saline with Tween-80): 104 % of control
- T/C (dose: 200.0 mg/kg/injection, schedule: Q04DX002 (ip), vehicle: saline with Tween-80): 104 % of control
- T/C (dose: 400.0 mg/kg/injection, schedule: Q04DX002 (ip), vehicle: saline with Tween-80): 106 % of control

SMILES: CC(=O)Nc1ccc(S(N)(=O)=O)cc1
- T/C (dose: 25.0 mg/kg/injection, schedule: Q01DX009 (ip), vehicle: saline): 96 % of control
- T/C (dose: 50.0 mg/kg/injection, schedule: Q01DX009 (ip), vehicle: saline): 95 % of control
- T/C (dose: 100.0 mg/kg/injection, schedule: Q01DX009 (ip), vehicle: saline): 96 % of control
- T/C (dose: 200.0 mg/kg/injection, schedule: Q01DX009 (ip), vehicle: saline): 102 % of control

SMILES: COC1C(O)CC(OC2C(C)OC(Oc3cc(O)c4c(O)c5c(cc4c3)C[C@@H]([C@H](OC)C(=O)[C@@H](O)[C@@H](C)O)[C@H](OC3CC(OC4CC(OC6CC(C)(O)C(O)C(C)O6)C(O)C(C)O4)C(O)C(C)O3)C5=O)CC2OC(C)=O)OC1C (stereo partly specified)
- T/C (dose: 37.5 mg/kg/injection, schedule: Q01DX009 (ip), vehicle: saline): 107 % of control
- T/C (dose: 75.0 mg/kg/injection, schedule: Q01DX009 (ip), vehicle: saline): 111 % of control
- T/C (dose: 150.0 mg/kg/injection, schedule: Q01DX009 (ip), vehicle: saline): 98 % of control
- T/C (dose: 300.0 mg/kg/injection, schedule: Q01DX009 (ip), vehicle: saline): 107 % of control

SMILES: CNC(=S)ON1CCCCC1
- T/C (dose: 100.0 mg/kg/injection, schedule: Q01DX009 (ip), vehicle: saline with Tween-80): 111 % of control
- T/C (dose: 200.0 mg/kg/injection, schedule: Q01DX009 (ip), vehicle: saline with Tween-80): 108 % of control
